Experimental data taken from ChEMBL document CHEMBL4715760, “Balancing potency, metabolic stability and permeability in pyrrolopyrimidine-based EGFR inhibitors” (Eur J Med Chem, 2016).

Key:
A-431 = test: Antiproliferative activity against human A431 cells assessed as inhibition of cell growth incubated for 72 hrs by Cell Titer Glo luminescent cell viability assay; assay type: functional, cell-based; details: A-431, 72 h
[1] = Metabolic stability in pooled human liver microsomes assessed as Clearance at 3 uM measured up to 45 mins in presence of NADPH by LC-MS/MS analysis; assay type: ADME, Microsome; details: pooled liver microsomes, read-out: CLH

Row | IC50 (A-431) | microsomal CLint at 3 µM [1] | SMILES
1 | 400 nM | – | COc1ccccc1-c1cc2c(N[C@H](CO)c3ccccc3)ncnc2[nH]1
2 | – | 43.8 µL/min/mg | C#Cc1cccc(Nc2ncnc3cc(OCCOC)c(OCCOC)cc23)c1 [ERLOTINIB]
